Data on 18 molecules can be found in US20240368122A1, “JAK2 INHIBITORS AND METHODS OF USE THEREOF” (RELAY THERAPEUTICS, INC., priority 2021, published 2024).

The structures appear in SMILES notation. Where two headings read alike, the source gives them in different places.

In assay [1] the test system is TF1 JAK2 V617F STAT5 reporter. The experiment in a line: Cellular TF1 STAT5 assay (luciferase reporter), JAK2 V617F. The class given is cell-based. As to conditions: read-out: Cell PD TF1 V617F STAT5 (IC50). A digest of the protocol: (§1)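 TF1 erythroleukemia cells expressing V617F JAK2 with a STAT3 or STAT5 luciferase reporter were seeded at 10,000 cells/well onto compound (10-point, 1:3 dilutions; 10 mM top stock at 1000×) and incubated 18-20 h at 37 °C, 5% CO2. Luminescence was read after ONE-glo addition, 10 min at room temperature.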

For assay [2], the system named is TF1 JAK2 V617F STAT3 reporter. The experiment in a line: Cellular TF1 STAT3 assay (luciferase reporter), JAK2 V617F. The class given is cell-based. The note with it: read-out: Cell PD-TF1 JAK2 V617F STAT3 (IC50). A digest of the protocol: as §1
Assay [3] deals with T1, JAK2 JH2 WT (V536-D812) [W659A, W777A, F794H solubilizing mutations] (Homo sapiens, UniProt O60674, F794H/W659A/W777A).
T1 construct: **JAK2 JH2 WT (V536-D812) [W659A, W777A, F794H solubilizing mutations]; C-thrombin-avi-His6; thrombin cleavage site (C); His6 (C); purchased Biortus
T1 sequence (O60674 536-812 W659A/W777A/F794H): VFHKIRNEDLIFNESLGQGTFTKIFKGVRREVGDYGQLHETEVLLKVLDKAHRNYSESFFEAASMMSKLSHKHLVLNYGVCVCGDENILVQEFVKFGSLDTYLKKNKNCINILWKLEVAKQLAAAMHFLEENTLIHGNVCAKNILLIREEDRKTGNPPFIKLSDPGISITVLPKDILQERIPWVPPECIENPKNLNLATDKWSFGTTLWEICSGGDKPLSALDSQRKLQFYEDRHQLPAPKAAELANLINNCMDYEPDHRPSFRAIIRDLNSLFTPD
The assay can be described thus: Surface Plasmon Resonance (SPR) binding assay, JAK2 JH2 domain. A digest of the protocol:
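Kinetics came from 1:1 fits of single-cycle runs at 20 °C: four 3-fold dilutions from 5 uM for JH1 or 500 nM for JH2, 60 s association, and 300 s or 1200 s dissociation respectively. Protein was freshly captured per compound in the presence of 10 uM stabilizer compound, with running buffer of pH 7.5 HEPES/NaCl/glycerol/DTT plus 2% DMSO.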

[4] abbreviates: Homo sapiens, TF-1, TF1 cells, JAK2 V617F.

For `CNC(=O)c1nnc(NC(=O)C2CC2)cc1Nc1cccc(-c2cnn([C@H]3C[C@@H]([C@H](O)c4ccccn4)C3)c2)c1OC` (single isomer, unassigned) [Compound 399], the figures for the IC50 in assay [1] (setting [4]) and in assay [2] (setting [4]) were 50 to 500 nM and 500 to 5000 nM, respectively. In addition, the Kd (in general, the free concentration of one partner at which half of the binding sites on the other are occupied at equilibrium, for simple one-to-one binding) in assay [3] (SPR, JAK2 JH2 domain) lay in the range of 0.01 to 10 nM.
As for `CNC(=O)c1nnc(NC(=O)C2CC2)cc1Nc1cccc(-c2cnn(C3CN(Cc4ccc(C#N)cn4)C3)c2)c1OC` [Compound 249], the IC50 in assay [1] (setting [4]) and in assay [2] (setting [4]) was 5000 to 100000 nM in each case. The Kd in assay [3] lay within 10 to 50 nM.
For `CNC(=O)c1nnc(NC(=O)C2CC2)cc1Nc1cccc(-c2cnn(C3CN(Cc4ncn(C)n4)C3)c2)c1OC` [Compound 104], the IC50 in assay [1] (TF1 JAK2 V617F) and in assay [2] (TF1 JAK2 V617F) was 500 to 5000 nM in each case. The molecule also had a Kd in assay [3] (SPR, JAK2 JH2 domain) of 0.01 to 10 nM.
For `CNC(=O)c1nnc(NC(=O)C2CC2)cc1Nc1cccc(-c2ccc(C(=O)N(C)Cc3cn(C(F)F)nc3C)nc2)c1OC` [Compound 297], the IC50 in assay [1] (setting [4]) and in assay [2] (setting [4]) was 50 to 500 nM each time. This molecule also gave a Kd in assay [3] of 0.01 to 10 nM.
Consider `CNC(=O)c1nnc(NC(=O)C2CC2)cc1Nc1ccc(C)c(-c2ccc(C(=O)N(C)Cc3cn(C)nc3C)nc2)c1OC` [Compound 164], for which the IC50 in assay [1] (TF1 JAK2 V617F) and in assay [2] (TF1 JAK2 V617F) was 50 to 500 nM each time. The molecule also came in with a Kd in assay [3] (SPR, JAK2 JH2 domain) of 0.01 to 10 nM.
In the case of `CNC(=O)c1nnc(NC(=O)C2CC2)cc1Nc1ccc(C)c(-c2cnn(C3CN(Cc4ccccn4)C3)c2)c1OC` [Compound 67], the half-maximal inhibitory concentration (IC50) in assay [1] (TF1 JAK2 V617F) and in assay [2] (TF1 JAK2 V617F) was 500 to 5000 nM each time. In assay [3] (SPR, JAK2 JH2 domain), this molecule showed a Kd of 0.01 to 10 nM.
`CNC(=O)c1nnc(NC(=O)C2CC2)cc1Nc1cccc(-c2cnn([C@H]3C[C@@H]([C@@H](O)c4ccccn4)C3)c2)c1OC` (single isomer, unassigned) [Compound 398]: the IC50 in assay [1] (setting [4]) and in assay [2] (setting [4]) was 500 to 5000 nM in each case. In addition, the Kd in assay [3] (SPR, JAK2 JH2 domain) is 0.01 to 10 nM.
For `CNC(=O)c1nnc(NC(=O)C2CC2)cc1Nc1cccc(-c2ccc(C(=O)N(C)C[C@@H]3CCS(=O)(=O)C3)nc2)c1OC` (single isomer, unassigned) [Compound 209], the IC50 in assay [1] (setting [4]) and in assay [2] (setting [4]) was 5000 to 100000 nM each time. In addition, in assay [3], the Kd lay in the range of 10 to 50 nM.
For the molecule `CNC(=O)c1nnc(NC(=O)C2CC2)cc1Nc1cccc(-c2cn(C3CN(C(C)C)C3)nc2C(C)O)c1OC` (stereo not drawn) [Compound 336], the half-inhibitory concentration (IC50) in assay [1] (setting [4]) and in assay [2] (setting [4]) was 5000 to 100000 nM throughout. The Kd in assay [3] is 50 to 500 nM.
`CNC(=O)c1nnc(NC(=O)C2CC2)cc1Nc1ccc(C)c(-c2cn([C@@H]3CN(Cc4cccc(C)n4)[C@H]3C)nn2)c1OC` (racemic) [Compound 270]: the IC50 in assay [1] (setting [4]) and in assay [2] (setting [4]) was 500 to 5000 nM each time. This molecule returned an equilibrium dissociation constant (Kd) in assay [3] of 0.01 to 10 nM.
Consider `CNC(=O)c1nnc(NC(=O)C2CC2)cc1Nc1ccc(C)c(-c2ccc(C(=O)N(C)Cc3nccs3)nc2)c1OC` [Compound 180], for which the IC50 in assay [1] (TF1 JAK2 V617F) and in assay [2] (TF1 JAK2 V617F) was 500 to 5000 nM in each case. This molecule also had a Kd in assay [3] (SPR, JAK2 JH2 domain) of 0.01 to 10 nM.
For `CNC(=O)c1nnc(NC(=O)C2CC2)cc1Nc1cccc(-c2ccc(C3CN(Cc4cc(C#N)ccn4)C3)c(OC)c2)c1OC` [Compound 360], the half-inhibitory concentration (IC50) (commonly the concentration needed to halve the response being measured) lay within 500 to 5000 nM in assay [1] (setting [4]) and 5000 to 100000 nM in assay [2] (setting [4]). In assay [3], this molecule yielded a Kd of 50 to 500 nM.
With `CNC(=O)c1nnc(NC(=O)C2CC2)cc1Nc1cccc(-c2ccc(C(=O)N(C)CC3=NO[C@@H]4CCCC[C@H]34)nc2)c1OC` (single isomer, unassigned) [Compound 193], the IC50 in assay [1] (TF1 JAK2 V617F) and in assay [2] (TF1 JAK2 V617F) was 50 to 500 nM throughout. The Kd in assay [3] (SPR, JAK2 JH2 domain) lay in the range of 0.01 to 10 nM.
Regarding `CNC(=O)c1nnc(NC(=O)C2CC2)cc1Nc1cccc(-c2ccc(C(=O)N(C)Cc3cn(C)cn3)nc2)c1OC` [Compound 86], the half-maximal inhibitory concentration (IC50) in assay [1] (TF1 JAK2 V617F) and in assay [2] (TF1 JAK2 V617F) was 500 to 5000 nM throughout. Also, the Kd in assay [3] (SPR, JAK2 JH2 domain) lay in the range of 0.01 to 10 nM.
As to `CNC(=O)c1nnc(NC(=O)C2CC2)cc1Nc1cccc(-c2ccc(C(=O)N(C)Cc3cccc(C)n3)nc2)c1OC` [Compound 167], the IC50 in assay [1] (TF1 JAK2 V617F) and in assay [2] (TF1 JAK2 V617F) was 50 to 500 nM in each case. Moreover, in assay [3] (SPR, JAK2 JH2 domain), the Kd fell in the range of 0.01 to 10 nM.
As to `[2H]C([2H])([2H])NC(=O)c1nnc(NC(=O)C2CC2)cc1Nc1cccc(-c2cnn(C3CN(Cc4ccccn4)C3)c2)c1OC` [Compound 105], the IC50 in assay [1] (TF1 JAK2 V617F) and in assay [2] (TF1 JAK2 V617F) was 50 to 500 nM throughout. The Kd in assay [3] (SPR, JAK2 JH2 domain) was in the range of 0.01 to 10 nM.
Turning to `CNC(=O)c1nnc(NC(=O)C2CC2)cc1Nc1cccc(-c2cnn(C3CN(Cc4cccc(NS(C)(=O)=O)n4)C3)c2)c1OC` [Compound 273], the half-maximal inhibitory concentration (IC50) in assay [1] (setting [4]) and in assay [2] (setting [4]) was 500 to 5000 nM throughout. In assay [3], this molecule gave a Kd of 0.01 to 10 nM.
On to `CNC(=O)c1nnc(NC(=O)C2CC2)cc1Nc1cccc(-c2ccc(C3CN(Cc4cnccc4C(F)F)C3)nc2)c1OC` [Compound 291], for which the values for the IC50 in assay [1] (setting [4]) and in assay [2] (setting [4]) were 500 to 5000 nM and 5000 to 100000 nM, respectively. Besides, the Kd in assay [3] fell in the range of 10 to 50 nM.
